Like-named read-outs stand apart in the source and are kept apart here. Marks after values point to notes of the source that are not given here.
What was measured:
ACTH = assay: Circadian hydrocortisone infusion in a patient with congenital adrenal hyperplasia (CAH), ACTH and 17-OH progesterone; type: in vivo, human
Method: A treatment regime involves the following protocol. A patient begins a treatment regime at 0830 having taken normal medication the day before. An indwelling cannula is inserted into the patient and basal blood samples are obtained to determine basal levels of cortisol. An infusion cannula is inserted for the administration of a bolus dose of hydrocortisone. Hydrocortisone is administered by infusion once basal samples taken (Patient details: body weight=113 kg; iv bolus 24 mg at 09:00 and follow the infusion rates changed on hourly bases). Total dose for the 1st day is 34.3 mg and 21.8 mg is given by 09:00 in the 2nd day). Samples are taken from the patient periodically from 0900 to 0900 and sampled hourly for cortisol, and ACTH
Dilute 100 mg of hydrocortisone in 2 ml of water for injection (concentration 1 mg/20 ul). Give bolus injection of 24 mg hydrocortisone (480 ul or 0.48 ml of hydrocortisone) using a 1 ml insulin syringe. Flush through with normal saline. For infusion put 50 mg of hydrocortisone (1 ml) in 49 mls normal saline=1 mg/ml and the run infusion according to the protocol above.
(§1) Serum was separated from blood samples immediately after collection and stored at minus 20° C. until analysis. Cortisol concentrations were measured using an ACS:180 automatic chemiluminescence system (Kiron Diagnostic Corporation, East Walpole, USA). Intra- and inter-assay coefficients of variation were less than 7.6%.
The method comprised the infusion of a patient suffering from CAH with hydrocortisone and the measurement of cortisol and ACTH levels. The patient is a person with CAH who is currently treated with oral hydrocortisone.
The infusion protocol for the patient is described in FIG. 5. […] Concomitant with the fall in ACTH the 17-OH progesterone fell from >500 nmol/l to a nadir of 67 nmol/l.

[1] = Study 2: pharmacokinetics of individually tailored (BSA- or weight-adjusted) dose of oral HC in adrenal-insufficient patients; type: in vivo, human; conditions: fasted
Method: as §1
(§2) The study was carried out in two groups of adrenal-insufficient patients, and a group of healthy subjects. It was approved by the North Sheffield Local Research Ethics Committee, and all participants gave written informed consent. All patients had primary or secondary adrenal insufficiency based on a 0900 h serum cortisol level off treatment of less than 50 nmol/l. Normal controls were matched to the second group of patients for gender, age, height, weight and BSA within 10% of individual patients. Patients on oestrogen replacement were studied after having stopped oestrogen for 6 weeks.
Study 2—Pharmacokinetics of individually tailored dose of oral HC and testing of monitoring protocol: A further 10 patients (6M, 4F; 46-68 y; BMI 24.4-35.5 kg/m^2) were studied after receiving HC doses of 5.5 mg/m^2 BSA (to the nearest practical dose unit) at 0830 h, 1 h before breakfast. The dosage was derived from analysis of the Study 1 data to minimise inter-subject variability. A tablet cutter was used to adjust the HC dose in 2.5 mg quanta, i.e. quarters of 10 mg tablets. Thus, the absolute dose ranged from 7.5 to 12.5 mg. Blood sampling was as in Study 1. Serum concentrations of endogenous cortisol were measured in 7 healthy subjects (3M, 4F; 44-68 y; BMI 23.2-28.7 kg/m^2) at the same time points as the patients but without ingestion of HC.
Owing to the discrete nature of dose increments (multiples of 2.5 mg) 9 of the 10 patients who had taken the BSA-adjusted HC dose would still require the same dose if this had been weight-adjusted. Only one of the 10 patients needed a reduction in the HC dose from 12.5 mg to 10.0 mg to be in the nearest weight-adjusted dose range.
Therefore, in the part of our analysis that was related to body weight-adjusted doses, the serum cortisol levels of this patient were normalised to a 10.0 mg dose assuming concentration-dose proportionality.
(§3) Kinetic analysis of the serum cortisol concentration-time profiles in the patients was carried out using the software package, P-Pharm (version 1.5, InnaPhase, France), assuming mono-exponential disposition, first-order absorption, and a baseline correction to account for any endogenous levels of cortisol. Values of oral clearance (CL/F), volume of distribution (V/F), absorption rate constant (ka) and absorption lag time (tlag) were obtained from the model fitting and were used to derive other parameter values. Bias in dosing was assessed as the percentage difference in AUC values in patients compared to the AUC of endogenous cortisol in the healthy subjects over the same time period. Variability in the features of the serum cortisol concentration-time profile in the patients was expressed as coefficient of variation (CV). The effect of food intake in Study 1 was assessed using ANOVA, accounting for repeat individual measurements in the fasting state. Body surface area, weight, height, BMI, dose of HC, gender and age were also investigated as co-variables. All statistical analyses were carried out using SPSS version 10.0 (SPSS Inc, USA).

[2] = 20 mg hydrocortisone, cited from earlier work
[3] = in vivo; cited from earlier work
[4] = cited from earlier work
[5] = Study 1: pharmacokinetics of 10 mg fixed dose oral HC in adrenal-insufficient patients; type: in vivo, human; conditions: for oral clearance / half-life: 10 mg oral, mean±S.E.M.; for Bias (AUC), % difference from healthy matched controls / Variability in AUC (C.V.) / Variability in Cmax (C.V.): Fixed 10 mg, listed as HC; for half-life: both sexes, human, serum, po, 10 mg, read-out: absorption half-life
Method: as §1, §2
Study 1—Pharmacokinetics of 10 mg fixed dose oral HC: Ten patients (5M, 5F, Age 32-72 yrs, BMI 21.7-35.8 kg/m^2) attended the Programmed Investigation Unit on 3 occasions. They discontinued HC replacement from noon on the day prior to the study and fasted from midnight. On the first and third occasions, the patients fasted throughout the study and, on the second occasion, they received a standard breakfast 20-30 minutes before receiving HC. On each of the 3 study days, patients received 10 mg of HC (Hydrocortone™, Merck, Sharp and Dohme) orally, between 0800-0900 h. Peripheral venous blood samples were taken immediately before dosage and at 20, 40, 50, 60, 70, 80, 90, 100, 120, 180, 240, 300 and 360 minutes after dosage; the serum was collected and stored pending assay for HC.
as §3

[6] = Weight-adjusted (0.12 mg/kg), if weight adjustment was assumed

- Bias (AUC), % difference from healthy matched controls ([1]; BSA-adjusted (5.5 mg/m^2)): 7.4%
- Variability in AUC (C.V.) ([1]; BSA-adjusted (5.5 mg/m^2)): 24%**
- Variability in Cmax (C.V.) ([1]; BSA-adjusted (5.5 mg/m^2)): 10%*
- Variability in AUC (C.V.) [1, 6]: 22%**
- Variability in Cmax (C.V.) [1, 6]: 7%*
- oral clearance ([5]; fasted): 0.270 ± 0.027 L/min
- oral clearance ([5]; fed): 0.226 ± 0.031 L/min
- Bias (AUC), % difference from healthy matched controls ([5]; fasted): 6.3%
- Variability in AUC (C.V.) ([5]; fasted): 50%
- Variability in Cmax (C.V.) ([5]; fasted): 31%
- Bias (AUC), % difference from healthy matched controls ([5]; fed): 24.5%
- Variability in AUC (C.V.) ([5]; fed): 45%
- Variability in Cmax (C.V.) ([5]; fed): 36%
- half-life ([5]; fasted): 15 ± 4 min
- half-life ([5]; fed): 43 ± 12 min
SMILES: C[C@]12CCC(=O)C=C1CC[C@@H]1[C@@H]2[C@@H](O)C[C@@]2(C)[C@H]1CC[C@]2(O)C(=O)CO [hydrocortisone, Hydrocortisone]
- 17-OH progesterone before the fall (ACTH; CAH patient on conventional oral hydrocortisone therapy, start of infusion): > 500 nmol/L
- 17-OH progesterone nadir (ACTH; CAH patient, during hydrocortisone infusion): 67 nmol/L
- morning ACTH after overnight increase in cortisol (ACTH; CAH patient, infusion simulating delayed and sustained release hydrocortisone): prevents the high morning ACTH
- ACTH during the infusion (ACTH; CAH patient, iv bolus 24 mg then circadian infusion): rapidly falls
- half-life ([2]; IV administration): 102 min
- total body clearance ([2]; IV administration): 18 L/h
- volume of distribution ([2]; IV administration): 34 L
- Oral bioavailablity ([2]; oral vs IV, average): 96%
- time to maximum levels (absorption) ([2]; oral): 1 h
- oral bioavailability [3]: 94-96%
- circulating cortisol bound to CBG ([4]; basal conditions, plasma): about 75%
- cortisol and metabolites conjugated in the liver and excreted in the urine ([4]; in vivo): Over 90%
- cortisol excreted in the urine unchanged ([4]; in vivo): less than 1%
